Reference: US10799496B2, “Naphthylenyl compounds for long-acting injectable compositions and related methods” (priority 2018, dated 2020)

Legend:
[1] = Whole blood stability assay; type: in vitro ADME; conditions: prodrug 50 nM, fresh pooled human whole blood, 37 degrees C.; read-out: t1/2 at 37 degrees C. in human whole blood
Method: Naltrexone prodrug stability was assessed using freshly collected whole blood (within 24-hr collection) from pooled human (n=3) donors. The incubation mixtures were prepared by spiking the prodrugs into pre-warmed (37 degrees C.) fresh whole blood to a final concentration of 50 nM. After gentle mixing, aliquots of incubation mixtures were immediately transferred into four different 96-deep well plates. One plate was used for each time point. The plates were incubated at 37 degrees C. at a shaking speed of 100 rpm. At time points 15, 30, 60 and 120 minutes, the reaction was quenched by addition of a mixture of water and acetonitrile containing the internal standard (naltrexone-D3). Time point 0 minutes was prepared separately by spiking the prodrugs into a quenched whole blood to obtain a final concentration of 50 nM. All samples were vortexed at a low speed for 15 min and centrifuged at 3900 rpm for 15 min. Supernatants were transferred into 96-well plates for LC-MS/MS analysis to monitor the depletion of the prodrugs and the formation of naltrexone.
The amount of remaining prodrug and released naltrexone for each sample was quantitated against the calibration curves prepared with the whole blood. The human whole blood was purchased from BioreclamationIVT (Westbury, N.Y., USA). Naltrexone-D3 was purchased from CERILLIANT® (Round Rock, Tex., USA). […] Where multiple runs have been completed, average values are reported.

[2] = Pharmacokinetic evaluation of the release of naltrexone from Compound 2 in rats following a single intramuscular injection; type: in vivo, Sprague-Dawley rats; conditions: for Compound 2i conc.: rat plasma
Method: Five male Sprague-Dawley rats were allowed to acclimate to the test facility for at least 2 days prior to study start. For dose administration of Compound 2, the rats were lightly anesthetized with isofluorane, the hind leg shaved and dosed intramuscularly with the formulation using a 21G needle. […] Serial whole blood samples were collected via sublingual route (˜150 μL) at 1, 8, and 24 hours post dose, and at 2, 4, 7, 10, 14, 17, 21, 24, 28, 35, 42, 49, 56, 63, 71, 78, 85, and 91 days post dose.
Blood samples were placed into K2EDTA blood collection tubes. After collection, blood samples were maintained chilled (on wet ice) and centrifuged (11,500 rpm for 2 minutes at 5 degrees C.) within 30 minutes to obtain plasma. Plasma was transferred into a single vial, 1.5 mL screw cap micro-centrifuge tube with inserts and stored at −80 degrees C. until analysis.
The formulation dosed was a crystalline suspension of Compound 2 (46 milligrams of Compound 2 dosed per animal), wherein the crystalline test article was characterized with a particle size distribution of Dv10=12.9 μm, Dv50=31.5 μm, and Dv90=63.1 μm (as measured via laser diffraction). The formulation was prepared the day before dosing. Details of the formulation dosed are described in Table D below.
Results of the above intramuscular rat study of Compound 2 are shown in Tables E and F. In particular, Table E reports the average blood plasma levels of naltrexone in rat (n=5) over 91 days following intramuscular administration.

O=C(Cc1cccc2c(CC(=O)Oc3ccc4c5c3O[C@H]3C(=O)CC[C@@]6(O)[C@@H](C4)N(CC4CC4)CC[C@]536)cccc12)Oc1ccc2c3c1O[C@H]1C(=O)CC[C@@]4(O)[C@@H](C2)N(CC2CC2)CC[C@]314 [Compound 1, bis((4R,4aS,7aR,12bS)-3-(cyclopropylmethyl)-4a-hydroxy-7-oxo-2,3,4,4a,5,6,7,7a-octahydro-1H-4,12-methanobenzofuro[3,2-e]isoquinolin-9-yl) 2,2′-(naphthalene-1,5-diyl)diacetate]
26.4 min: half-life at 50 nM [1]

O=C(O)Cc1ccc2cc(CC(=O)Oc3ccc4c5c3O[C@H]3C(=O)CC[C@@]6(O)[C@@H](C4)N(CC4CC4)CC[C@]536)ccc2c1 [Compound 2i, 2-(6-(2-(((4R,4aS,7aR,12bS)-3-(cyclopropylmethyl)-4a-hydroxy-7-oxo-2,3,4,4a,5,6,7,7a-octahydro-1H-4,12-methanobenzofuro[3,2-e]isoquinolin-9-yl)oxy)-2-oxoethyl)naphthalen-2-yl)acetic acid]
generally low to not measurable: plasma concentrations of parent Compound 2 and the resultant intermediate ([2]; rat, single i.m. dose of Compound 2, over 91 days)
<0.1 ng/mL: Compound 2i conc. ([2]; single i.m. dose of Compound 2, day 49, Rat 1) | Compound 2i conc. ([2]; single i.m. dose of Compound 2, day 49, Rat 2) | Compound 2i conc. ([2]; single i.m. dose of Compound 2, day 49, Rat 3) | Compound 2i conc. ([2]; single i.m. dose of Compound 2, day 49, Rat 4) | Compound 2i conc. ([2]; single i.m. dose of Compound 2, day 56, Rat 1) | Compound 2i conc. ([2]; single i.m. dose of Compound 2, day 56, Rat 2) | Compound 2i conc. ([2]; single i.m. dose of Compound 2, day 56, Rat 3) | Compound 2i conc. ([2]; single i.m. dose of Compound 2, day 56, Rat 4) | Compound 2i conc. ([2]; single i.m. dose of Compound 2, day 56, Rat 5) | Compound 2i conc. ([2]; single i.m. dose of Compound 2, day 63, Rat 1) | Compound 2i conc. ([2]; single i.m. dose of Compound 2, day 63, Rat 2) | Compound 2i conc. ([2]; single i.m. dose of Compound 2, day 63, Rat 3) | Compound 2i conc. ([2]; single i.m. dose of Compound 2, day 63, Rat 4) | Compound 2i conc. ([2]; single i.m. dose of Compound 2, day 63, Rat 5) | Compound 2i conc. ([2]; single i.m. dose of Compound 2, day 71, Rat 1) | Compound 2i conc. ([2]; single i.m. dose of Compound 2, day 71, Rat 2) | Compound 2i conc. ([2]; single i.m. dose of Compound 2, day 71, Rat 3) | Compound 2i conc. ([2]; single i.m. dose of Compound 2, day 71, Rat 4) | Compound 2i conc. ([2]; single i.m. dose of Compound 2, day 71, Rat 5) | Compound 2i conc. ([2]; single i.m. dose of Compound 2, day 78, Rat 1) | Compound 2i conc. ([2]; single i.m. dose of Compound 2, day 78, Rat 2) | Compound 2i conc. ([2]; single i.m. dose of Compound 2, day 78, Rat 3) | Compound 2i conc. ([2]; single i.m. dose of Compound 2, day 78, Rat 4) | Compound 2i conc. ([2]; single i.m. dose of Compound 2, day 78, Rat 5) | Compound 2i conc. ([2]; single i.m. dose of Compound 2, day 85, Rat 1) | Compound 2i conc. ([2]; single i.m. dose of Compound 2, day 85, Rat 2) | Compound 2i conc. ([2]; single i.m. dose of Compound 2, day 85, Rat 3) | Compound 2i conc. ([2]; single i.m. dose of Compound 2, day 85, Rat 4) | Compound 2i conc. ([2]; single i.m. dose of Compound 2, day 85, Rat 5) | Compound 2i conc. ([2]; single i.m. dose of Compound 2, day 91, Rat 1) | Compound 2i conc. ([2]; single i.m. dose of Compound 2, day 91, Rat 2) | Compound 2i conc. ([2]; single i.m. dose of Compound 2, day 91, Rat 3) | Compound 2i conc. ([2]; single i.m. dose of Compound 2, day 91, Rat 4) | Compound 2i conc. ([2]; single i.m. dose of Compound 2, day 91, Rat 5)
<0.2 ng/mL: Compound 2i conc. ([2]; single i.m. dose of Compound 2, day 0.042 (1 hr), Rat 1) | Compound 2i conc. ([2]; single i.m. dose of Compound 2, day 0.042 (1 hr), Rat 2) | Compound 2i conc. ([2]; single i.m. dose of Compound 2, day 0.042 (1 hr), Rat 3) | Compound 2i conc. ([2]; single i.m. dose of Compound 2, day 0.042 (1 hr), Rat 4) | Compound 2i conc. ([2]; single i.m. dose of Compound 2, day 0.042 (1 hr), Rat 5) | Compound 2i conc. ([2]; single i.m. dose of Compound 2, day 0.33 (8 hr), Rat 1) | Compound 2i conc. ([2]; single i.m. dose of Compound 2, day 0.33 (8 hr), Rat 2) | Compound 2i conc. ([2]; single i.m. dose of Compound 2, day 0.33 (8 hr), Rat 3) | Compound 2i conc. ([2]; single i.m. dose of Compound 2, day 0.33 (8 hr), Rat 4) | Compound 2i conc. ([2]; single i.m. dose of Compound 2, day 0.33 (8 hr), Rat 5) | Compound 2i conc. ([2]; single i.m. dose of Compound 2, day 1, Rat 1) | Compound 2i conc. ([2]; single i.m. dose of Compound 2, day 1, Rat 2) | Compound 2i conc. ([2]; single i.m. dose of Compound 2, day 1, Rat 3) | Compound 2i conc. ([2]; single i.m. dose of Compound 2, day 1, Rat 4) | Compound 2i conc. ([2]; single i.m. dose of Compound 2, day 1, Rat 5) | Compound 2i conc. ([2]; single i.m. dose of Compound 2, day 2, Rat 1) | Compound 2i conc. ([2]; single i.m. dose of Compound 2, day 2, Rat 2) | Compound 2i conc. ([2]; single i.m. dose of Compound 2, day 2, Rat 3) | Compound 2i conc. ([2]; single i.m. dose of Compound 2, day 2, Rat 4) | Compound 2i conc. ([2]; single i.m. dose of Compound 2, day 2, Rat 5) | Compound 2i conc. ([2]; single i.m. dose of Compound 2, day 4, Rat 1) | Compound 2i conc. ([2]; single i.m. dose of Compound 2, day 4, Rat 2) | Compound 2i conc. ([2]; single i.m. dose of Compound 2, day 4, Rat 3) | Compound 2i conc. ([2]; single i.m. dose of Compound 2, day 4, Rat 4) | Compound 2i conc. ([2]; single i.m. dose of Compound 2, day 4, Rat 5) | Compound 2i conc. ([2]; single i.m. dose of Compound 2, day 7, Rat 1) | Compound 2i conc. ([2]; single i.m. dose of Compound 2, day 7, Rat 2) | Compound 2i conc. ([2]; single i.m. dose of Compound 2, day 7, Rat 3) | Compound 2i conc. ([2]; single i.m. dose of Compound 2, day 7, Rat 4) | Compound 2i conc. ([2]; single i.m. dose of Compound 2, day 7, Rat 5) | Compound 2i conc. ([2]; single i.m. dose of Compound 2, day 10, Rat 5)

CC(=O)Oc1c(CC(=O)Oc2ccc3c4c2O[C@H]2C(=O)CC[C@@]5(O)[C@@H](C3)N(CC3CC3)CC[C@]425)ccc2c(OC(C)=O)c(CC(=O)Oc3ccc4c5c3O[C@H]3C(=O)CC[C@@]6(O)[C@@H](C4)N(CC4CC4)CC[C@]536)ccc12 [Compound 3, bis((4R,4aS,7aR,12bS)-3-(cyclopropylmethyl)-4a-hydroxy-7-oxo-2,3,4,4a,5,6,7,7a-octahydro-1H-4,12-methanobenzofuro[3,2-e]isoquinolin-9-yl) 2,2′-(1,5-diacetoxynaphthalene-2,6-diyl)diacetate]
14.8 min: half-life at 50 nM [1]

COc1c(CC(=O)Oc2ccc3c4c2O[C@H]2C(=O)CC[C@@]5(O)[C@@H](C3)N(CC3CC3)CC[C@]425)ccc2c(OC)c(CC(=O)Oc3ccc4c5c3O[C@H]3C(=O)CC[C@@]6(O)[C@@H](C4)N(CC4CC4)CC[C@]536)ccc12 [Compound 4, bis((4R,4aS,7aR,12bS)-3-(cyclopropylmethyl)-4a-hydroxy-7-oxo-2,3,4,4a,5,6,7,7a-octahydro-1H-4,12-methanobenzofuro[3,2-e]isoquinolin-9-yl) 2,2′-(1,5-dimethoxynaphthalene-2,6-diyl)diacetate]
28.9 min: half-life at 50 nM [1]
